The values below come from patent US20180055868A1, “METHODS AND COMPOSITIONS FOR STIMULATING BONE REGENERATION” (New York University, priority 2012, published 2018).

Assay [1] deals with trephined calvarium bone defect. Description: Trephined 3 mm calvarial defect, collagen matrix reinjected daily, microCT bone regeneration (Example 2). Format: in vivo, mice. To be noted: 8 weeks post trephination; for concentration achieving maximal effect on bone regeneration / dose dependence of effect on bone regeneration: FIG. 3; for effect on bone regeneration: microCT, FIG. 2. The protocol: In FIG. 2B, the percentage bone regeneration is calculated as the percent of the original defect that was now filled with bone.
(§1) A 3 mm portion of the calvarium was trephined with a drill followed by implantation of a collagen matrix soaked in either a vehicle or a pharmacologic agent and/or receptor antagonists to promote bone regeneration. The matrix was reinjected daily with the agent for periods ranging from 2-8 weeks prior to harvest of the mice and examination of the calvaria. […] Experiments were performed with specific agonists and antagonists at varying doses, and specific receptor agonists were tested on corresponding knockout mice to better confirm the role of the indicated receptor.
(§2) Some of the calvaria were decalcified, and histochemical and immunohistochemical staining and microscopic analyses were performed. Other calvaria were cleaned of adherent tissue and subject to microCT analysis for bone defect size and percent regeneration measures.

Assay [2] concerns trephined calvarium bone defect in A2BKO mice. Description: Calvarial defect bone regeneration in A2B receptor knockout (A2BKO) mice. Format: in vivo. To be noted: 8 weeks post trephination, FIG. 5. As to the method:
as §1

For assay [3], the system named is osteoblasts and osteoclasts in the regenerating bone. Kind of assay: Histochemical and immunohistochemical staining of regenerating calvarial bone sections. To be noted: for TRAP stained osteoclasts in the regenerating bone / alkaline phosphatase positive osteoblasts in the regenerating bone / RANK+ cells in the regenerating bone / RANKL+ cells in the regenerating bone / osteoprotegerin+ cells in the regenerating bone: cells/hpf vs control; for TRAP stained osteoclasts in the regenerating bone / alkaline phosphatase positive osteoblasts in the regenerating bone: FIG. 7; for bone formation shown histologically: histology of calvaria, FIG. 9; for RANK+ cells in the regenerating bone / RANKL+ cells in the regenerating bone / osteoprotegerin+ cells in the regenerating bone: immunohistochemistry, FIG. 8. Format: in vivo, mice.
From the text: Shown in FIG. 7A are representative medium powered fields of calvarial sections stained immunohistochemically for alkaline phosphatase (left hand column, a marker for osteoblasts). Shown in the next column of figures are sections stained histochemically for tartrate resistant acid phosphatase (a marker for osteoclasts). Arrows in these figures point to osteoblasts (first column) or osteoclasts (second column).
Paraffin embedded sections are stained immunohistochemically for RANK, RANKL or osteoprotegerin. Slides are imaged and positive cells (brown) are enumerated in three fields. Shown on the left are representative medium power sections of immunohistochemcically stained sections.
Staining of decalcified bone sections for osteoclasts (TRAP staining) and osteoblasts (alkaline phosphatase staining) was performed. Immunostaining for other markers of osteoclast (cathepsin K) lineage and other molecules of interest (e.g. semaphorin 4D, plexin-B1, nuclear b-catenin) were performed.
as §2

Assay [4] relates to peripheral blood monocytes. The following applies: effect mediated by adenosine acting at A1 receptors; cited from earlier work.
Another assay addresses T1, A3 adenosine receptor (Homo sapiens, UniProt P0DMS8).
T1 sequence (P0DMS8 1-318): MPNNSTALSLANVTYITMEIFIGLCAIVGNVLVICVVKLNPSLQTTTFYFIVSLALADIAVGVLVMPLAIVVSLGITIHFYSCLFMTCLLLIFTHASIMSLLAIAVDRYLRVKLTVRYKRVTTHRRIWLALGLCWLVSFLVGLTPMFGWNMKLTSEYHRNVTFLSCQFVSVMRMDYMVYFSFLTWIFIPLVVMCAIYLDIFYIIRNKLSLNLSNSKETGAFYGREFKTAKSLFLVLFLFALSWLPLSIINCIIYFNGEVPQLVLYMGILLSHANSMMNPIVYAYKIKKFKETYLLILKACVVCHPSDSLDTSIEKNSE
The following applies: cited from earlier work.

The next assay concerns defect in mouse calvaria. Description: 3 mm mouse calvarial bone defect with drug-soaked collagen matrix, microCT (Example 1). The following applies: collagen matrix in 3 mm calvarial defect, 8 weeks. Format: in vivo, C57B6 mice. The protocol: . Under general anesthesia a 3 mm in diameter defect is drilled into the skull of C57B6 mice. […]. The matrix is then reinjected with 100 μl of these agents daily for 8 weeks before harvest. […] FIG. 1B represents the percentage bone regeneration calculated as the percent of the original defect that was now filled with bone. Shown are the means (+SD) of results obtained in 3 animals for each condition. Results were analyzed by ANOVA. ***p<0.001
A 3 mm in diameter defect was created in mouse calvaria into which was fit a collagen matrix. […].

Regarding `N#Cc1c(N)nc(SCC(N)=O)c(C#N)c1-c1ccc(OCC2CC2)cc1` [BAY606583], in assay [1], the “concentration achieving maximal effect on bone regeneration” value (“concentration achieving maximal effect” for short) was determined as 1 µM, the “dose dependence of effect on bone regeneration” value (“dose dependence of effect” for short) is given as “dose-dependent” and the “effect on bone regeneration” value is listed as “stimulate bone regeneration”.

For the compound `CCNC(=O)[C@H]1O[C@@H](n2cnc3c(N)nc(NCCc4ccc(CCC(=O)O)cc4)nc32)[C@H](O)[C@@H]1O` [CGS21680], the “effect of the agent on bone regeneration upon deletion of the A2B receptor” value in assay [2] is given as “reverses the effect”. Besides, in assay [1], the “concentration achieving maximal effect” value was 1 µM, the “dose dependence of effect” value is recorded as “dose-dependent” and the “effect on bone regeneration” value is on record as “stimulate bone regeneration”. Further, in assay [3], the “TRAP stained osteoclasts in the regenerating bone” value (“TRAP stained osteoclasts” below) is listed as “reduce”, the “alkaline phosphatase positive osteoblasts in the regenerating bone” value is given as “increase”, the “bone formation shown histologically” value is on record as “bone formation” and the “RANK+ cells in the regenerating bone” value was “reduction”. In addition, in assay [3], the “RANKL+ cells in the regenerating bone” value is reported as “reduction” and the “osteoprotegerin+ cells in the regenerating bone” value (from here on “osteoprotegerin+ cells”) is recorded as “increase”.

For `CCCn1c(=O)c2[nH]c(C3CCCC3)nc2n(CCC)c1=O` [DPCPX, 8-Cyclopentyl-1,3-dipropylxanthine], the “effect of the agent on bone regeneration upon deletion of the A2B receptor” value in assay [2] is “reverses the effect”. Moreover, in assay [1], the “concentration achieving maximal effect” value came to 1 µM, the “dose dependence of effect” value is given as “dose-dependent” and the “effect on bone regeneration” value was “stimulate bone regeneration”. In assay [3], the “TRAP stained osteoclasts” value is given as “reduce”, the “alkaline phosphatase positive osteoblasts in the regenerating bone” value is reported as “increase”, the “bone formation shown histologically” value is given as “bone formation” and the “RANK+ cells in the regenerating bone” value is recorded as “reduction”. For the same compound, in assay [3], the “RANKL+ cells in the regenerating bone” value is reported as “reduction” and the “osteoprotegerin+ cells” value was “increase”.

Turning to `CN(Cc1cnc2nc(N)nc(N)c2n1)c1ccc(C(=O)N[C@@H](CCC(=O)O)C(=O)O)cc1` [Methotrexate], the giant cell formation result in assay [4] is “increases giant cell formation”.

In the case of `Nc1nc(NCCc2ccc(O)cc2)nc2nc(-c3ccco3)nn12` [ZM241385], in assay [1] (FIG. 4), the “effect of antagonist on bone regeneration promoted by dipyridamole” value is recorded as “blocks the effect” and the “effect of antagonist on bone regeneration promoted by the A2A agonist CGS21680” value was “blocks the effect”.

`CNC(=O)[C@H]1O[C@@H](n2cnc3c(NCc4cccc(I)c4)ncnc32)[C@H](O)[C@@H]1O` [adenosine A3 receptor agonist]: in assay [1], the “concentration achieving maximal effect” value is 1 µM, the “dose dependence of effect” value is given as “dose-dependent” and the “effect on bone regeneration” value is “no effect”.

For `Nc1ncnc2c1ncn2[C@@H]1O[C@H](CO)[C@@H](O)[C@H]1O` [adenosine], on A3 adenosine receptor, the affinity for adenosine entry is recorded as “low-micromolar range”.

Regarding `OCCN(CCO)c1nc(N2CCCCC2)c2nc(N(CCO)CCO)nc(N3CCCCC3)c2n1` [dipyridamole], in assay [1], the “concentration achieving maximal effect” value turned out to be 1 µM, the “dose dependence of effect” value is “dose-dependent” and the “effect on bone regeneration” value was “promotes bone regeneration”. Besides, the “effect on bone regeneration” value in the assay on defect in mouse calvaria is “stimulates bone regeneration”. For the same compound, in assay [3], the “TRAP stained osteoclasts” value is “reduce”, the “alkaline phosphatase positive osteoblasts in the regenerating bone” value is “increase”, the “bone formation shown histologically” value is “bone formation” and the “RANK+ cells in the regenerating bone” value is “reduction”. In assay [3], the “RANKL+ cells in the regenerating bone” value is reported as “reduction” and the “osteoprotegerin+ cells” value is recorded as “increase”.
